Results taken from US10052304B2, “Compositions and methods for cancer therapy” (UNIVERSITY OF IOWA RESEARCH FOUNDATION, priority 2015, dated 2018).
Where “and” joins values, the source holds several entries; their conditions need not be identical. Equal values may be shown once.

Columns and labels:
[1] = test system: stage IV pancreas cancer patients; conditions: cited from earlier work
GBM subjects = assay: Phase I clinical trial of pharmacological ascorbate with radiation and temozolomide in GBM
Procedure: The study was broken into two phases: radiation phase and adjuvant phase. Radiation phase was defined as the time period from day 1 of radiation through adjuvant cycle 1, day 1.
Adjuvant phase was defined as the time period from cycle 1 day 1 through cycle 6 day 28. […] Prescribed doses utilized the same cohorts as the radiation phase. Subjects were dose-escalated after 2 infusions until a plasma level of 20 mM was achieved. […] Temozolomide was prescribed consistent with the Stupp regimen: 150 mg m^−2 for days 1 through 5 of a 28 day cycle. A one-time dose escalation was allowed to 200 mg/m^2 if cycle 1 was tolerated (FIG. 18A).
All subjects agreed to, and participate in, lifelong follow-up for this study. Subject numbers are for convenience and not representative of case ID numbers.
The study was broken into two phases: radiation phase and adjuvant phase. Radiation phase was defined as the time period from day 1 of radiation through adjuvant cycle 1, day 1. […] Cohorts were defined as 15 g, 25 g, 50 g, 62.5 g, 75 g, 87.5 g, 100 g, and 125 g. […] Adjuvant phase was defined as the time period from cycle 1 day 1 through cycle 6 day 28. […] Prescribed doses utilized the same cohorts as the radiation phase. Subjects were dose-escalated after 2 infusions until a plasma level of 20 mM was achieved. […] Temozolomide was prescribed consistent with the Stupp regimen: 150 mg m-2 for days 1 through 5 of a 28 day cycle. A one-time dose escalation was allowed to 200 mg/m2 if cycle 1 was tolerated (FIG. 18A). […] Dose limiting toxicities (DLTs) for the study included grade 4 infection, grade 3 nausea or vomiting despite maximum supportive care, grade 4 neutropenia or thrombocytopenia, and serious adverse events (SAE) with causality to the investigational agent. In addition to DLT, criteria for removal included progressive disease, patient's refusal to continue treatment, and extraordinary medical circumstances (e.g., the constraints of the protocol are considered detrimental to patient health). All subjects agreed to, and participate in, lifelong follow-up for this study. Subject numbers are for convenience and not representative of case ID numbers.

ETC complex I = ETC complex I activity after ascorbate exposure; format: cell-based, human; conditions: 15 pmol cell^−1 ascorbate for 1 h, NSCLC cell lysates
Procedure: Exponentially growing cells were scraped and frozen as dry pellets until assayed for total activity. Aconitase activity was measured as the rate of appearance of NADPH (at 340 nm; Beckman DU 800 spectrophotometer, Brea, Calif.) for 45 min during the reaction of 200 μg total sample protein with 200 μM NADP^+ and 10 U isocitrate dehydrogenase as previously described (Case et al., 2011). Maximal ETC complex activity was measured as previously described (Birch-Machin et al., 1994). Complex I activity was quantified as the rate of rotenone-inhibitable NADH oxidation (320 nm; c=6.22 mM^−1 cm^−1). Complex II activity as the difference in the rate of DCIP reduction in the presence and absence of succinate (at 600 nm; ε=19.1 mM^−1 cm^−1). Complex IV activity was assayed as the rate of oxidation of cytochrome c ([…]; ε=19.6 mM^−1 cm^−1). Rates of activities were normalized to total protein by Lowry.
Exponentially growing cells were scraped and frozen as dry pellets until assayed for protein content (Lowry) and maximal ETC complex activity as previously described (Birch-Machin et al., 1994). Briefly, dry cell pellets were resuspended in 20 mM potassium phosphate buffer and sonicated 3×10 s each. Rates of activities were normalized to total protein. Complex I activity was quantified as the rate of rotenone-inhibitable NADH oxidation (320 nm; ε=6.22 mM-1 cm-1). […]

NHA = conditions: 1 h ascorbate + 25 μM temozolomide + 2 Gy IR
Procedure: (§1) After treatment, cells were washed with PBS and clonogenic assay was completed in their respective media as previously described (Fath et al., 2011). Treatment conditions for individual experiments are as described in the figure legends and summarized in the Supplemental Experimental Procedures.
(§2) 1-2×10^5 cells were plated in 60 mm cell culture dishes and grown in their respective media for 48 h before exposed to experimental conditions. […] For AdGPx1 experiments, cells were supplemented with 50 nM sodium selenite following transduction and throughout clonogenic growth. […] After treatment, cells were washed with PBS and clonogenic assay was completed in their respective media. Briefly, floating and attached cells were collected and total cells per plate were counted. An experimentally derived number of cells were plated into each well of a 6-well cell culture plate in their respective media. For HEL92.1.7 suspension cells, cells were seeded in a top layer of 0.4% (w/v) agarose to allow for quantifiable colony formation. After sufficient time (7-12 days, cell type-dependent), cells were fixed in 70% ethanol and stained with a Brilliant Blue methanol solution. […] Normalized survival fractions were calculated by comparing plating efficiencies of each treatment group against the control group within a given experiment.

HBEpC = conditions: 1 h ascorbate + 5 μM carboplatin + 2 Gy IR
Procedure: as §1, §2

[2] = ascorbate + radiation + temozolomide
[3] = ascorbate + radiation + temozolomide, 11 subjects

## O=C1O[C@H]([C@@H](O)CO)C(O)=C1O [ascorbate, L-ascorbic acid]
[1]; ascorbate + gemcitabine
  side effects attributed to the combination: rare and included diarrhea and dry mouth
[1]; pharmacological ascorbate + gemcitabine, stage IV pancreas cancer
  average survival: 14 months
GBM subjects; 87.5 g infusions
  desired therapeutic blood level (≥20 mM target plasma concentration) reached: achieved in all subjects
GBM subjects; all 13 subjects, 15-125 g/infusion IV
  safety and tolerability: safe and well tolerated
GBM subjects; as of 7/28/15
  patients that completed the radiation phase still living: 10 of 11
GBM subjects; [2]
  OS range: 7.3-29.3 m and 7.3-31.1 m
  PFS range: 3.4-29.3 m and 3.4-31.1 m
  estimated median overall survival (Kaplan-Meier): 28.4 months
  mean progression free survival as of 7/28/15: 14 months
  median OS: 15.5 m
  median PFS: 9.4 m
GBM subjects; [3]
  average overall survival (OS): 18.2 months
  average progression free survival (PFS): 11.9 months
  current median overall survival (OS): 16.5 months
  median progression free survival (PFS): 9.4 months
GBM subjects; in combination with radiation and temozolomide
  adverse events attributed to pharmacological ascorbate: no adverse events attributed to pharmacological ascorbate
GBM subjects; of 11 subjects in longevity analysis
  subjects remaining alive: 7
ETC complex I
  ETC complex I activity: inactivation
NHA
  sensitization to temozolomide + IR (clonogenic survival): not
HBEpC
  sensitization to carboplatin + IR (clonogenic survival): not
